Patent US12728168B2, “Anti-CEA antibody-exatecan analog conjugate and pharmaceutical use thereof” (JIANGSU HENGRUI MEDICINE CO., LTD., priority 2019, dated 2026)

Experiments:
human soluble CEA = molecular target: T1, human soluble CEA (Homo sapiens, UniProt P06731); experiment: Affinity of antibodies for soluble CEA using Biacore; assay type: binding; settings: 1:1 Langmuir
T1 construct: His6 (C); made in house; host or cells: 293E cells
T1 sequence (P06731 with tags, fused parts or gaps): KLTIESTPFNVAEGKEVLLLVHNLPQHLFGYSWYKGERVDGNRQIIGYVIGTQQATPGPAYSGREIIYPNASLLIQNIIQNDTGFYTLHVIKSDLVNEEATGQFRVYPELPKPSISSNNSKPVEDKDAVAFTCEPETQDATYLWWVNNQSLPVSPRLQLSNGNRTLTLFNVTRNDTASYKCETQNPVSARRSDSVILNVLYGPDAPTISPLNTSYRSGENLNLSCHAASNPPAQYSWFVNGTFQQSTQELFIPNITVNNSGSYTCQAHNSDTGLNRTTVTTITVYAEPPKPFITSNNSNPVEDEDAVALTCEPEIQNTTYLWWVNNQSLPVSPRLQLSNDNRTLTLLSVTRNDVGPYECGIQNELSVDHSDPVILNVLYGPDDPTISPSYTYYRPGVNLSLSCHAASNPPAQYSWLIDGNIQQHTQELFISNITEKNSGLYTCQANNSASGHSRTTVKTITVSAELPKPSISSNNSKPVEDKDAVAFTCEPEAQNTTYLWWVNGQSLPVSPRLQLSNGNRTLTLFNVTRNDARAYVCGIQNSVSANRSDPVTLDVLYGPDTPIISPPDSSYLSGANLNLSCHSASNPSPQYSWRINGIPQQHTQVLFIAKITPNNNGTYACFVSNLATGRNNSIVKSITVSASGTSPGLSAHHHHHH
Protocol: The affinity of a test humanized antibody for human and monkey soluble CEA was determined using a Biacore (GE, T200) instrument. According to the method in the instructions of a human antibody capture kit (GE, Cat #BR-1008-39), the human antibody capture antibody was covalently conjugated to a biosensor chip CM5 (GE, Cat #BR-1005-30) of the Biacore instrument to affinity-capture a certain amount of the test antibody, then a series of concentration gradients of soluble CEA antigens were allow to flow through the surface of the chip, and reaction signals were detected in real time using Biacore, so that an association and dissociation curve was obtained. After each cycle of dissociation was completed, the biochip was washed and regenerated with a regeneration solution prepared in the human antibody capture kit. The data obtained from the experiment were fitted with the (1:1) Langmuir model using BIAevaluation version 4.1 software to obtain affinity values.

[1] = system: monkey CEA expressed on CHO cell surface (cynoCEA-CHO); experiment: FACS binding assay, cynoCEA-CHO cells; design: species or system cynomolgus monkey; settings: Table 17, humanized antibodies and controls
Protocol: In order to detect the binding of the antibody to the CEA protein on the cell surface, the binding activity of the antibody was determined by FACS using cells expressing CEA on the cell surface. Cells were harvested and centrifuged at 400 g at 4° C. for 5 min. Pre-cooled PBS containing FBS at final concentration 10% was added, and the mixture was centrifuged at 400 g at 4° C. for 5 min; the procedures were repeated twice. […] The plate was incubated at 4° C. for 60 min and centrifuged, and the supernatant was removed. 250 μL of pre-cooled PBS containing FBS at final concentration 10% was added to each well to resuspend the cells, and the suspension was centrifuged at 400 g at 4° C. for 5 min, followed by the removal of the supernatant; the procedures were repeated twice. 50 μL of 1:200 diluted secondary antibody Alexa Fluor@488 goat anti-human IgG (H+L) (Lifetechologies, Cat #A11013) was added. The plate was incubated in the dark at 4° C. for 45 min and centrifuged, and the supernatant was removed. 250 μL of pre-cooled PBS containing FBS at final concentration 10% was added to each cell to resuspend the cells, and the suspension was centrifuged at 400 g at 4° C. for 5 min; the procedures were repeated twice. 100 μL of pre-cooled PBS was added to each well to resuspend the cells. The plate was analyzed by a flow cytometer (BD, FACSverse) for fluorescence signal values.

[2] = molecular target: T2, human CEACAM1 expressed on CHO cell surface (CEACAM1-CHO) (Homo sapiens, UniProt P13688); experiment: FACS binding assay, CEACAM1-CHO cells; settings: Table 17, humanized antibodies and controls
T2 construct: expressed in transfected cells; host or cells: CHO cells
T2 sequence (P13688 35-526): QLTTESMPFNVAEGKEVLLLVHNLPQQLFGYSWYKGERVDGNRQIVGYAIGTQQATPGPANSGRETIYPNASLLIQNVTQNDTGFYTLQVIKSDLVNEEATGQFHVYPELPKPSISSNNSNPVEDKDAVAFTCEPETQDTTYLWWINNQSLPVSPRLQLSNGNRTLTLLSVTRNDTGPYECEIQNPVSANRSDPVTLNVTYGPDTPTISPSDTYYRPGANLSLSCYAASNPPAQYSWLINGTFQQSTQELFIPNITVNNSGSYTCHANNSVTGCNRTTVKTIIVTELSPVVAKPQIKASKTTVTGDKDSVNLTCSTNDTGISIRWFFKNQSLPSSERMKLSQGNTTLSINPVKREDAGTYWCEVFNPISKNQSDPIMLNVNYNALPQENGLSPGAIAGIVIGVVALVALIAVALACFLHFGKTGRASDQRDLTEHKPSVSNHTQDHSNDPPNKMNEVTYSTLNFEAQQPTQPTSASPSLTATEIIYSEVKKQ
Protocol: In order to detect the binding of the antibody to the CEA protein on the cell surface, the binding activity of the antibody was determined by FACS using cells expressing CEA on the cell surface. Cells were harvested and centrifuged at 400 g at 4° C. for 5 min. Pre-cooled PBS containing FBS at final concentration 10% was added, and the mixture was centrifuged at 400 g at 4° C. for 5 min; the procedures were repeated twice. The cells were seeded into a 96-well plate at 10^5 cells/well, and 100 μL of gradient diluted antibody solution was added to each well. The plate was incubated at 4° C. for 60 min and centrifuged, and the supernatant was removed. 250 μL of pre-cooled PBS containing FBS at final concentration 10% was added to each well to resuspend the cells, and the suspension was centrifuged at 400 g at 4° C. for 5 min, followed by the removal of the supernatant; the procedures were repeated twice. 50 μL of 1:200 diluted secondary antibody Alexa Fluor@488 goat anti-human IgG (H+L) (Lifetechologies, Cat #A11013) was added. The plate was incubated in the dark at 4° C. for 45 min and centrifuged, and the supernatant was removed. 250 μL of pre-cooled PBS containing FBS at final concentration 10% was added to each cell to resuspend the cells, and the suspension was centrifuged at 400 g at 4° C. for 5 min; the procedures were repeated twice. 100 μL of pre-cooled PBS was added to each well to resuspend the cells. The plate was analyzed by a flow cytometer (BD, FACSverse) for fluorescence signal values. Higher values indicate higher binding activity of the antibody to the protein on the cell surface. Binding curves were plotted using PRISM analysis software based on the assay results, and the EC50 values for the binding activity of the antibody to the cell surface proteins human CEA (MKN45 human gastric cancer cells, Nanjing Kebai Biotechnology Co., Ltd., Cat #CBP60488), cynoCEA-CHO and CEACAM1-CHO were obtained by fitting.

[3] = system: LS174T (with moderate CEA expression); experiment: Cytotoxicity of ADCs, Cell Titer-Glo, LS174T; assay type: cell-based; settings: for IC50: 5 days
Protocol: (§1) Following conjugation of humanized CEA antibodies to toxin 2-A, cytotoxicity of each ADC to cancer cell lines with different CEA expression levels was evaluated. The CEA-highly expressing cells MKN45, the CEA-moderately expressing cells LS174T and the CEA-expressing negative cells HCT116 were plated in 96-well plates; gradient-diluted ADC samples were added to the cells the next day, and the cells were cultured at 37° C. for 5 days. 50 μL of Cell Titer-Glo reagent (Promega, Cat #G9242) was added to each well, and after incubation for 10 min in the dark, the luminescence signals were detected by a cell imaging detector (BioTek, Cytation5). An inhibition curve was plotted with the detection results using PRISM analysis software, and fitted to obtain an IC50 value of the inhibitory activity of the ADC against cell proliferation.

[4] = system: MKN45 xenograft tumor model; experiment: In vivo inhibitory activity against tumors, MKN45 xenograft; design: species or system BALB/c nude mice
Protocol: (§2) The in vivo efficacy of the ADC molecules was evaluated using LS174T and MKN45 xenograft tumor models. BALB/c nude mice (SPF grade, Shanghai Slac Laboratory Animal Co., Ltd., certificate no.: 201833814, license no.: SCXK (Jiangsu) 2016-0010) were housed in a 12/12 hour light/dark cycle at a temperature of 23±1° C. with humidity at 40-50%, with food (standard sterilized feed for mice) and water ad libitum. The mice were acclimatized for 10 days in a laboratory environment before the start of the experiment and then inoculated subcutaneously on the right flank with LS174T cells (5×10^5 cells/mouse) or MKN45 cells (4×10^6 cells/mouse). Tumors were allowed to grow to a size of about 150 mm^3, and then the mice were randomized into groups of 8. After grouping, the mice in the experimental groups were intraperitoneally injected with ADC samples in a dose of 1 mg/kg or 3 mg/kg, and those in the blank control group were intraperitoneally injected with PBS, only once. The sizes of the tumors on the mice were observed, measured and recorded.

[5] = system: LS174T xenograft tumor model; experiment: In vivo inhibitory activity against tumors, LS174T xenograft; design: species or system BALB/c nude mice
Protocol: as §2

[6] = system: HCT116 (without CEA expression); experiment: Cytotoxicity of ADCs, Cell Titer-Glo, HCT116; assay type: cell-based; settings: for IC50: 5 days
Protocol: as §1

HCT116 cultured alone = experiment: Bystander effect test, HCT116 cultured alone; assay type: cell-based; settings: ADC 4 nM, 5 days, FIG. 2
Protocol: (§3) In order to evaluate the bystander effect and cytotoxicity of the ADC, the CEA-highly expressing cell line MKN45 and the CEA-expressing negative cell line HCT116 were cultured in a 6-well cell culture plate for 24 h, and then an ADC sample was added at a final concentration of 4 nM. The cells were cultured in a cell incubator at 37° C. for another 5 days.
(§4) The cells were digested with pancreatin and collected, and CEA Monoclonal Antibody FITC (ThermoFisher, Cat #MA1-80578) was added at a final concentration of 10 μg/mL. The cells were incubated on ice in the dark for 1 h, washed twice with PBS, and counted using a flow cytometer.

[7] = system: MKN45 (with high CEA expression); experiment: Cytotoxicity of ADCs, Cell Titer-Glo, MKN45; assay type: cell-based, human; settings: for IC50: 5 days
Protocol: as §1

[8] = system: MKN45 and HCT116 co-cultured; experiment: Bystander effect and cytotoxicity, MKN45 and HCT116 co-cultured; assay type: cell-based; settings: ADC 4 nM, 5 days, FIG. 2
Protocol: as §3, §4

[9] = ADC batches of high DAR (6.29-7)
[10] = ADC batches of low DAR (3.97-4.8)

monkey CEA expressed on CHO cell surface (cynoCEA-CHO), sequence (as listed by the source): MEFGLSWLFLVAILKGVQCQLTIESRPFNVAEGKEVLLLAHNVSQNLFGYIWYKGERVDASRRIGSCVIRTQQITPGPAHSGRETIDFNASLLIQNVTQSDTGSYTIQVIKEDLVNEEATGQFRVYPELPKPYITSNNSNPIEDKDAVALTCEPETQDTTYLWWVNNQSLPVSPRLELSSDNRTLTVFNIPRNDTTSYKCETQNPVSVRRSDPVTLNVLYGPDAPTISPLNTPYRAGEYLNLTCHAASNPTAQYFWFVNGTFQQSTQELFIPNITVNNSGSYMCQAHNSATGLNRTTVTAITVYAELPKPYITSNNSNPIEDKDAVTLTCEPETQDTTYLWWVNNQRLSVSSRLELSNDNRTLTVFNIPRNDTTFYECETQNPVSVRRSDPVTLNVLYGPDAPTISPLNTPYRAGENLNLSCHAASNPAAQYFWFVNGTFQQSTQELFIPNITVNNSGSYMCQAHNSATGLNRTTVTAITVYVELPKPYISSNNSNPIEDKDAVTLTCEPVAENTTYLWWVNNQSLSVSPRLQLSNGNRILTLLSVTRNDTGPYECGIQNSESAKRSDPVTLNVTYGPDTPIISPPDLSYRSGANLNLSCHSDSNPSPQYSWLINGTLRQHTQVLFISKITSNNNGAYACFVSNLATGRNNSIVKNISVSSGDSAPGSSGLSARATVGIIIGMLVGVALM

Substance: Lmab [reference compound]
- ka (human soluble CEA): 55800 M⁻¹ s⁻¹
- kd (human soluble CEA): 0.000331 s⁻¹
- EC50 (nM) cynoCEA-CHO [1]: No binding
- EC50 (nM) CEACAM1-CHO [2]: No binding

Substance: Lmab-CL2A-SN38: control ADC: toxin CL2A-SN38 conjugated to Lmab (labetuzumab)
- IC50 [3, 9]: 0.346 nM
- IC50 [3, 10]: 0.662 nM
- IC50 ratio HCT116/LS174T [3, 9]: 1.24
- IC50 ratio HCT116/LS174T [3, 10]: 1.60
- Tumor inhibition rate (%) ([4]; 3 mpk, intraperitoneal, only once, 3 mg/kg): 13.51%
- effect on tumor volume ([4]; FIG. 5, ranking among the 3-mpk groups): the worst inhibitory effect on tumors
- effect on tumor weight ([4]; FIG. 6, last day, ranking among the 3-mpk groups): the worst inhibitory effect on tumors
- Tumor inhibition rate (%) ([5]; 3 mpk, intraperitoneal, only once): 33.44%
- effect on tumor volume ([5]; FIG. 3, ranking among the 3-mpk groups): the worst inhibitory effect on tumors
- effect on tumor weight ([5]; FIG. 4, last day, ranking among the 3-mpk groups): the worst inhibitory effect on tumors
- IC50 [6, 9]: 0.428 nM
- IC50 [6, 10]: 1.06 nM
- dependence of cytotoxicity on CEA expression level ([6]; MKN45, LS174T and HCT116 compared): non-specific cytotoxicity
- toxicity to HCT116 cultured alone (HCT116 cultured alone): very toxic
- IC50 [7, 9]: 0.665 nM
- IC50 [7, 10]: 1.59 nM
- IC50 ratio HCT116/MKN45 [7, 9]: 0.64
- IC50 ratio HCT116/MKN45 [7, 10]: 0.66
- bystander effect and cytotoxicity [8]: very toxic
